Source: ChEMBL document CHEMBL1201862, “PubChem BioAssay data set” (2004)
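Assay format: 96-well plates, 48-hour exposure. GI50 is the concentration that inhibits growth by half.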 The source made the active and inactive calls. No stated cut-off is given here; in the data, active = GI50 up to about 1.1 µM and inactive = higher.

Legend:
Assay in all cases: growth of human tumour cells (NCI), 48 h
KM-20L2 = test system: KM-20L2
Malme-3M = test system: Malme-3M
SF-295 = test system: SF-295
COLO 205 = test system: COLO 205
U-251 = test system: U-251
HOP-62 = test system: HOP-62
OVCAR-8 = test system: OVCAR-8
A549 = test system: A549
UACC-257 = test system: UACC-257
SK-MEL-28 = test system: SK-MEL-28
SW-620 = test system: SW-620
SR = test system: SR
HL-60 = test system: HL-60
TK-10 = test system: TK-10
A498 = test system: A498
XF498 = test system: XF498
M19-MEL = test system: M19-MEL
NCI-H522 = test system: NCI-H522
UO-31 = test system: UO-31
UACC-62 = test system: UACC-62
DMS-273 = test system: DMS-273
SK-OV-3 = test system: SK-OV-3
786-0 = test system: 786-0
SN12C = test system: SN12C
HCT-116 = test system: HCT-116
DMS-114 = test system: DMS-114
SF-268 = test system: SF-268
SF-539 = test system: SF-539
HT-29 = test system: HT-29
LXFL 529 = test system: LXFL 529
SK-MEL-5 = test system: SK-MEL-5
RPMI-8226 = test system: RPMI-8226
HCC 2998 = test system: HCC 2998
NCI-H226 = test system: NCI-H226
ACHN = test system: ACHN
SNB-75 = test system: SNB-75
HOP-18 = test system: HOP-18
MOLT-4 = test system: MOLT-4
OVCAR-3 = test system: OVCAR-3
SNB-19 = test system: SNB-19
OVCAR-5 = test system: OVCAR-5
EKVX = test system: EKVX
DLD-1 = test system: DLD-1
CCRF-CEM = test system: CCRF-CEM
KM12 = test system: KM12
SNB-78 = test system: SNB-78
K562 = test system: K562
M14 = test system: M14
HOP-92 = test system: HOP-92
SK-MEL-2 = test system: SK-MEL-2
LOX IMVI = test system: LOX IMVI
NCI-H23 = test system: NCI-H23
RXF 393 = test system: RXF 393
NCI/ADR-RES = test system: NCI/ADR-RES
HCT-15 = test system: HCT-15
MDA-MB-435 = test system: MDA-MB-435
MDA-MB-231 = test system: MDA-MB-231
DU-145 = test system: DU-145
MCF7 = test system: MCF7
CAKI-1 = test system: CAKI-1
PC-3 = test system: PC-3
T47D = test system: T47D
NCI-H460 = test system: NCI-H460
MDA-N = test system: MDA-N
IGROV-1 = test system: IGROV-1
BT-549 = test system: BT-549
OVCAR-4 = test system: OVCAR-4
Hs-578T = test system: Hs-578T

CC(=O)N1CCC2(c3ccccc3N(C(C)=O)C2c2ccc(O)cc2)C1C(=O)O (stereo not given)
GI50 (KM-20L2): > 100 µM (inactive) | GI50 (Malme-3M): > 100 µM (inactive) | GI50 (SF-295): > 100 µM (inactive) | GI50 (COLO 205): > 100 µM (inactive) | GI50 (U-251): > 100 µM (inactive) | GI50 (HOP-62): > 100 µM (inactive) | GI50 (OVCAR-8): > 100 µM (inactive) | GI50 (A549): > 100 µM (inactive) | GI50 (UACC-257): > 100 µM (inactive) | GI50 (SK-MEL-28): > 100 µM (inactive) | GI50 (SW-620): > 100 µM (inactive) | GI50 (SR): > 100 µM (inactive) | GI50 (HL-60): > 100 µM (inactive) | GI50 (TK-10): > 100 µM (inactive) | GI50 (A498): > 100 µM (inactive) | GI50 (XF498): > 100 µM (inactive) | GI50 (M19-MEL): > 100 µM (inactive) | GI50 (NCI-H522): > 100 µM (inactive) | GI50 (UO-31): > 100 µM (inactive) | GI50 (UACC-62): > 100 µM (inactive) | GI50 (DMS-273): > 100 µM (inactive) | GI50 (SK-OV-3): > 100 µM (inactive) | GI50 (786-0): > 100 µM (inactive) | GI50 (SN12C): > 100 µM (inactive) | GI50 (HCT-116): > 100 µM (inactive) | GI50 (DMS-114): > 100 µM (inactive) | GI50 (SF-268): > 100 µM (inactive) | GI50 (SF-539): > 100 µM (inactive) | GI50 (HT-29): > 100 µM (inactive) | GI50 (LXFL 529): > 100 µM (inactive) | GI50 (SK-MEL-5): > 100 µM (inactive) | GI50 (RPMI-8226): > 100 µM (inactive) | GI50 (HCC 2998): > 100 µM (inactive) | GI50 (NCI-H226): > 100 µM (inactive) | GI50 (ACHN): > 100 µM (inactive) | GI50 (SNB-75): > 100 µM (inactive) | GI50 (HOP-18): > 100 µM (inactive) | GI50 (MOLT-4): > 100 µM (inactive) | GI50 (OVCAR-3): > 100 µM (inactive) | GI50 (SNB-19): > 100 µM (inactive) | GI50 (OVCAR-5): > 100 µM (inactive) | GI50 (EKVX): > 100 µM (inactive) | GI50 (DLD-1): > 100 µM (inactive) | GI50 (CCRF-CEM): > 100 µM (inactive) | GI50 (KM12): > 100 µM (inactive) | GI50 (SNB-78): > 100 µM (inactive) | GI50 (K562): > 100 µM (inactive) | GI50 (M14): > 100 µM (inactive) | GI50 (HOP-92): > 100 µM (inactive) | GI50 (SK-MEL-2): > 100 µM (inactive) | GI50 (LOX IMVI): > 100 µM (inactive) | GI50 (NCI-H23): > 100 µM (inactive) | GI50 (RXF 393): > 100 µM (inactive)

C[N+](C)(C)CCC(=O)N1C/C(=C\c2ccccc2)C(=O)/C(=C/c2ccccc2)C1
GI50 (KM-20L2): 8 µM (inactive) | GI50 (Malme-3M): 15.4 µM (inactive) | GI50 (NCI/ADR-RES): 1.64 µM (inactive) | GI50 (SF-295): 3.78 µM (inactive) | GI50 (COLO 205): 3.47 µM (inactive) | GI50 (HCT-15): 2.47 µM | GI50 (U-251): 3.03 µM (inactive) | GI50 (HOP-62): 18.1 µM (inactive) | GI50 (MDA-MB-435): 2.29 µM (inactive) | GI50 (OVCAR-8): 3.52 µM (inactive) | GI50 (A549): 14.7 µM (inactive) | GI50 (UACC-257): 12.2 µM (inactive) | GI50 (SK-MEL-28): 8.05 µM (inactive) | GI50 (MDA-MB-231): 3.22 µM (inactive) | GI50 (SW-620): 0.904 µM (active) | GI50 (HL-60): 2.27 µM (inactive) | GI50 (TK-10): 14.4 µM (inactive) | GI50 (A498): 20.7 µM (inactive) | GI50 (DU-145): 16.8 µM (inactive) | GI50 (XF498): 14.5 µM (inactive) | GI50 (M19-MEL): 4.81 µM (inactive) | GI50 (NCI-H522): 2.25 µM (inactive) | GI50 (UO-31): 18.9 µM (inactive) | GI50 (MCF7): 1.45 µM (inactive) | GI50 (UACC-62): 3.58 µM (inactive) | GI50 (DMS-273): 2.19 µM (inactive) | GI50 (SK-OV-3): 23.7 µM (inactive) | GI50 (CAKI-1): 6.49 µM (inactive) | GI50 (786-0): 2.38 µM (inactive) | GI50 (SN12C): 2.08 µM (inactive) | GI50 (HCT-116): 1.53 µM (inactive) | GI50 (PC-3): 2.49 µM (inactive) | GI50 (DMS-114): 5.98 µM (inactive) | GI50 (SF-268): 5.14 µM (inactive) | GI50 (SF-539): 5.06 µM (inactive) | GI50 (HT-29): 2.79 µM (inactive) | GI50 (LXFL 529): 3.78 µM (inactive) | GI50 (SK-MEL-5): 9.95 µM (inactive) | GI50 (RPMI-8226): 0.385 µM (active) | GI50 (HCC 2998): 3.47 µM (inactive) | GI50 (NCI-H226): 10 µM (inactive) | GI50 (ACHN): 6.3 µM (inactive) | GI50 (SNB-75): 7.83 µM (inactive) | GI50 (HOP-18): 12.2 µM (inactive) | GI50 (T47D): 2.09 µM (inactive) | GI50 (MOLT-4): 2.45 µM (inactive) | GI50 (OVCAR-3): 3.82 µM (inactive) | GI50 (SNB-19): 5.38 µM (inactive) | GI50 (OVCAR-5): 16.9 µM (inactive) | GI50 (EKVX): 21.4 µM (inactive) | GI50 (DLD-1): 2.2 µM (inactive) | GI50 (CCRF-CEM): 1.64 µM (inactive) | GI50 (NCI-H460): 7.87 µM (inactive) | GI50 (KM12): 1.6 µM (inactive) | GI50 (MDA-N): 1.9 µM (inactive) | GI50 (SNB-78): 6.65 µM (inactive) | GI50 (IGROV-1): 5.12 µM (inactive) | GI50 (K562): 1.21 µM (inactive) | GI50 (BT-549): 2.33 µM (inactive) | GI50 (M14): 2.72 µM (inactive) | GI50 (HOP-92): 20.6 µM (inactive) | GI50 (SK-MEL-2): 15.8 µM (inactive) | GI50 (OVCAR-4): 3.37 µM (inactive) | GI50 (LOX IMVI): 1.7 µM (inactive) | GI50 (NCI-H23): 10.4 µM (inactive) | GI50 (RXF 393): 11.8 µM (inactive) | GI50 (Hs-578T): 4.31 µM (inactive)
